In patent US20210260142A1, “COMPOSITIONS BASED ON DIETARY FIBERS AND ESSENTIAL OILS” (Ralco Nutrition, Inc., priority 2020, published 2021):

Key:
[1] = 3-Oil screening trial, 35 days, cocci stress; assay type: in vivo, Cobb 500 cockerels; settings: product in feed
Description: 640 1-day-old Cobb 500 cockerels were wing banded, weighed and randomly assigned to pens on the day of delivery. Each pen was 3 feet wide by 2 feet long by 2 feet tall holding 10 birds each; density was 0.6 sq. ft. per bird. The pens were contained within two battery cages in a single barn, each with battery cage having 4 levels and 8 pens per level for a total of 32 pens per battery. The experimental period was 35 days divided into three (3) feeding stages, starter, grower and finisher. Bird weight, average daily gain (ADG), average daily feed intake (ADFI), feed to gain (FG) and Coccidiosis oocyte counts were determined at each period. This study was performed with a large number of treatments in order to screen a number of possible treatments for further future investigations. […]

Eimeria maxima = test: Anticoccidial efficacy battery-cage study, E. maxima lesions and oocysts
Eimeria acervulina = test: Anticoccidial efficacy battery-cage study, E. acervulina lesions and oocysts
Eimeria tenella = test: Anticoccidial efficacy battery-cage study, E. tenella lesions and oocysts
[2] = Day 20, Johnson and Reid 1970 scoring, five birds per cage

Row | SMILES | Average bird weights at thirty-five (35) days [1] [grams] | Lesion Scores Eimeria maxima (Eimeria maxima; [2]) [days] | Oocysts/Gram Eimeria maxima (Eimeria maxima; feces Day 19 to Day 20) [bc Oocysts/Gram] | Lesion Scores Eimeria acervulina (Eimeria acervulina; [2]) [days] | Oocysts/Gram Eimeria acervulina (Eimeria acervulina; feces Day 19 to Day 20) [cd Oocysts/Gram] | Lesion Scores Eimeria tenella (Eimeria tenella; [2]) [b] | Oocysts/Gram Eimeria tenella (Eimeria tenella; feces Day 19 to Day 20) [bc Oocysts/Gram]
1 | O=CC=Cc1ccccc1 [cinnamaldehyde] | 2180.2 | – | – | – | – | – | –
2 | CC[C@@H](C(=O)[C@@H](C)[C@@H](O)[C@H](C)[C@@H]1O[C@@H]([C@@H](CC)C(=O)O)CC[C@@H]1C)[C@H]1O[C@]2(C=C[C@@H](O)[C@]3(CC[C@@](C)([C@H]4CC[C@](O)(CC)[C@H](C)O4)O3)O2)[C@H](C)C[C@@H]1C [Salinomycin] | – | 0.7 | 212 | 0.8 | 18403 | 0.9 | 1843
